Measurements: a melting point compilation (Tetko et al.)

Row | SMILES | melting point [°C]
1 | Cc1cnnc2ccc3nonc3c12 | 171 to 173
2 | ClCc1ccc(OCc2ccccc2)c(OCc2ccccc2)c1 | 41 to 44
3 | CC(C)(O)C#Cc1ccccn1 | 83
4 | OC(c1ccc(Cl)cc1)(c1cncnc1)c1ccccc1Cl (stereo not drawn) | 118
5 | Cc1ccc(COc2cccc(F)c2C#N)cc1 | 81 to 83
6 | Cc1ccc2sc(Br)cc2c1 | 92 to 93
7 | OCC1OC(c2ccccc2)OC1CO (single isomer, unassigned; (+)) | 69 to 74
8 | CCOC(=O)C(O)C(O)C(=O)OCC (stereo not drawn) | 17
9 | O=C1C=CC(=O)C(Cl)=C1 | 52 to 57
10 | CCOC(=O)Nc1ccc(Cl)cc1 | 64 to 66
11 | COc1nsc(N)n1 | 172 to 173
12 | Clc1ncnc2ccsc12 | 125 to 126
13 | CN(C)CCOc1ccc(C(=C(CCCl)c2ccccc2)c2ccccc2)cc1 | 108
14 | CC1=NN(CN2CCCCC2)C(=O)/C1=N\Nc1ccc(Cl)cc1Cl | 122 to 124
15 | COC(=O)Cc1csc2ccc(Cl)cc12 | 55 to 56
16 | CC1C=CC(C2CC(=O)OC2=O)C12CC2 (stereo not drawn) | 98
17 | COc1ccc(Br)cc1C=CC(=O)O | 224 to 229
18 | CC(C)(C)OC(=O)N1CCN(c2ccc(CO)cn2)CC1 | 112 to 115
19 | COc1ccc(C=CC(=O)c2ccc(F)cc2)c(OC)c1 | 117 to 122
20 | O=C(c1ccccc1)c1nn(-c2ccccc2)c(-c2ccc([N+](=O)[O-])cc2)c1S(=O)(=O)c1ccccc1 | 116
21 | CCC(Nc1ncnc(C)c1Cl)c1ccc(OC(F)F)cc1 (stereo not drawn) | 47.8
22 | O=C(NC(Cc1ccc(Br)s1)C(=O)O)OCC1c2ccccc2-c2ccccc21 (stereo not drawn) | 158
23 | Cc1ccc(OP(=O)(Oc2ccc(C)cc2)Oc2ccc(C)cc2)cc1 | 77.5
24 | CCOC(=O)c1cnc2n(c1=O)CCS2 | 175 to 176

Row | SMILES | melting point [°C]
25 | Brc1n[nH]c(Br)n1 | 201
26 | O=[N+]([O-])c1cc(Cl)ccc1Sc1ccccc1 | 82 to 84
27 | CCOC(=O)c1cnc2nc(SC)nn2c1N | 211 to 213
28 | FC(F)(F)c1ccc(-c2nc(CCl)cs2)cc1 | 80 to 85
29 | Fc1ncccc1-c1ccc(Cl)cn1 | 100
30 | Cc1ccc(-c2ccc3c(c2)C=CC(=C2C(=O)c4ccccc4C2=O)N3)cc1 | 241 to 242
31 | NCCS(=O)(=O)O | 328
32 | CCCCCCCCCCCCCCCCOc1ccc(C(=O)O)cc1 | 132
33 | CC(C)(C)OC(=O)N1CCCC[C@@H]1C(=O)O | 118 to 122
34 | O=C1c2ccccc2C(=O)N1c1n[nH]c2ncccc12 | 254
35 | O=C(O)c1c(Br)cccc1Br | 150
36 | OC1(c2ccccc2)c2ccccc2Oc2ccccc21 | 158 to 162
37 | O=C1Nc2ccccc2C=NC2CCCCC2N=Cc2ccccc2NC(=O)O1 (stereo not drawn) | 253 to 255
38 | CC(COc1ccccc1)N(CCCl)Cc1ccccc1 (stereo not drawn) | 39
39 | COc1ccc(Oc2ncccc2[N+](=O)[O-])cc1 | 95 to 101
40 | CC1OC(C)OC(C)OC(C)O1 (stereo not drawn) | 246
41 | COc1cccc(F)c1 | -35
42 | O=C(O)C=Cc1ccsc1 | 155 to 156
43 | O=C(O)c1ccccc1-n1cccc1 | 104
44 | O=C(O)C1Cc2ccccc2O1 (stereo not drawn) | 117 to 118
45 | O=C(O)CCc1cccc(O)c1 | 112
46 | C[C@](N)(CO)C(=O)O | 286 to 288
47 | C#Cc1ccc(C(C)=O)cc1 | 68 to 70
48 | O=C(O)c1cc([N+](=O)[O-])ccc1N1CCOCC1 | 166 to 172

Row | SMILES | melting point [°C]
49 | O=C(Cl)/C=C/c1ccc(/C=C/C(=O)Cl)cc1 | 171
50 | OC(Cn1cncn1)(c1ccc(F)cc1)c1ccccc1F (stereo not drawn) | 130
51 | Cc1ccc(C(c2ccc(C)o2)c2ccccc2N=C=S)o1 | 65
52 | CCC1(CCC(C)C)C(=O)NC(=O)NC1=O | 156
53 | Cc1ccc(NC(=O)C(C(F)(F)F)C(F)(F)F)cc1C | 189
54 | COc1ccc(C=C2C3=C(CCCC3)OC3=C2CCCC3)cc1 | 123 to 124
55 | CCc1cn(C2CC(O)C(CO)O2)c(=O)[nH]c1=O (stereo not drawn) | 152
56 | O=[N+]([O-])c1cccc(S(=O)(=O)OCC2CO2)c1 (stereo not drawn) | 61 to 65
57 | O=C1C=C(N2CC2)C(=O)C(N2CC2)=C1N1CC1 | 163
58 | CC(C)(C(N)=O)n1nc2ccccc2n1 | 174
59 | COC1=C(C(C)C)C(=O)C2=C(C1=O)C1(C)CCCC(C)(C)C1CC2O (stereo not drawn) | 138
60 | COc1cccc(OC)c1C(=O)O | 187 to 190
61 | CC(=O)OOC(C)=O | 30
62 | Cc1cc(Br)c[nH]c1=O | 171 to 175
63 | N=C(N)NCC1COc2ccccc2O1 (stereo not drawn) | 164
64 | CC(=O)Oc1c(-c2ccccc2)[nH]c2cc(N)c(/C=C/c3ccccc3)cc12 | 266
65 | CC(C)(C)C1=CC(=O)C(C(C)(C)C)=CC1=O | 153
66 | Cc1cc2nnc(C(=O)O)c(C)n2n1 | 166 to 168
67 | N#CN=CNc1ccccc1 | 138 to 141
68 | COc1cc2c(cc1C)C(=O)C2 | 88
69 | O=[N+]([O-])N1CCCCC1 | -5.5
70 | CC(=O)C(=NNc1ccc(Br)cc1)C(C)=O | 132
71 | C=CCC1(CC=C)C(=O)NC(=O)NC1=O | 172 to 173
72 | CCOc1ccc(N)c(N)c1 | 71.5

Row | SMILES | melting point [°C]
73 | CC1=CCC(=C(C)C)CC1 | < 25
74 | O=C(C=Nc1ccccc1)c1cc(C(=O)C=Nc2ccccc2)cc(C(=O)C=Nc2ccccc2)c1 | 340
75 | Ic1cn[nH]c1 | 109
76 | COC(=O)C1(S(=O)(=O)c2ccc([N+](=O)[O-])cc2)CC1 | 127
77 | CCCCCCCCCCCCCCCCCCCCCCC(=O)O | 79 to 80
78 | COc1c(F)ccc(C(N)=O)c1F | 112
79 | COCCCn1c(-c2ccc(C(C)(C)C)cc2)n[nH]c1=S | 116 to 118
80 | CCc1c(C)[nH]c2c1C(=O)C(CN1CCOCC1)CC2 (stereo not drawn) | 180
81 | COC(=O)C1(S(=O)(=O)c2ccc(Br)cc2)CC1 | 124
82 | CC(=O)O[C@H]1CCCC2=CC(=O)CC[C@@]21C | 89 to 90
83 | NC(CS(=O)(=O)c1ccc(F)cc1)=NO | 180 to 183
84 | CC(=O)O[C@H]1[C@H](OC(C)=O)[C@@H](S(=O)(=O)c2ccccc2)OC[C@H]1OC(C)=O | 145 to 148
85 | COC(=O)CC(=O)CCl | 14 to 16
86 | CCCCCCCCCCCCCCCC(OC)OC | 10
87 | CCC(C)C(C)(COC(N)=O)COC(N)=O (stereo not drawn) | 77
88 | O=S(=O)(Cl)c1cc(S(=O)(=O)c2ccccc2)cs1 | 102
89 | CCNC(=O)C1CC(C)CCC1C(C)C (stereo not drawn) | 88
90 | Cc1cccc(N/N=C(\C#N)c2nc(-c3ccc(Cl)cc3)cs2)c1C | 196
91 | CC/C=C/Br | -100
92 | COc1ccc(OC)c(F)c1 | 25
93 | COc1cccc(C2NC(=O)NC(C)=C2C(=O)OC(C)C)c1OC (stereo not drawn) | 167
